Patent US20110178104A1, “Anti-Heparin Compounds” (POLYMEDIX INC., priority 2010, published 2011)

Assays:
tinzaparin = assay: FXa amidolytic assay (Example 10), tinzaparin; settings: read-out: Tinzap FXa EC50; tinzaparin 0.1 ug/ml; human antithrombin, bovine Factor Xa
Unfractionated heparin = assay: aPTT clotting assay, UFH 0.4 U/mL in plasma (Example 10); type: biochemical; settings: unfractionated heparin 0.4 U/mL in plasma; aPTT clotting
Experimental: aPTT clotting Assay: Unfractionated heparin was mixed with plasma at a final concentration of 0.4 U/mL (or concentration which increases aPTT time to between 120 and 300 seconds). […] The ACL Elite Hemostasis analyzer (Beckman Coulter™) was used to add aPTT reagent (HemosIL SynthASil) to supplemented plasma. Clotting was initiated by addition of CaCl2 and time to clot was recorded.

fondaparinux = assay: FXa amidolytic assay (Example 10), fondaparinux; settings: read-out: Fondap FXa EC50; fondaparinux 0.02 μg/mL; human antithrombin, bovine Factor Xa
enoxaparin = assay: FXa amidolytic assay (Example 10), enoxaparin; settings: read-out: Enox FXa EC50; enoxaparin 0.1 ug/ml; human antithrombin, bovine Factor Xa

EC50 (tinzaparin)	EC50 (Unfractionated heparin)	EC50 (fondaparinux)	EC50 (enoxaparin)	SMILES
250 nM	2960 nM	1160 nM	326 nM	COc1ccc(NC(=O)[C@H](CCC(=O)O)NC(=O)c2cc(NC(=O)[C@H](CCCNC(=N)N)NC(=O)c3cc(NC(=O)[C@H](CCCNC(=N)N)NC(=O)c4cc(NC(=O)[C@@H](N)CCCNC(=N)N)ccc4OC)ccc3OC)ccc2OC)cc1C(N)=O [Compound 323]
> 5000 nM	> 10000 nM	> 10000 nM	> 5000 nM	COc1cc(OC)c(C(=O)NCCCNC(=O)c2cc(C(=O)NCCCNC(=O)c3cc(C(=O)NCCCN)c(OC)cc3OC)c(OC)cc2OC)cc1C(=O)NCCCN [Compound 408]
165 nM	1780 nM	5110 nM	247 nM	COc1ccc(NC(=O)[C@H](CCCCN)NC(=O)c2cc(NC(=O)[C@H](CCCCN)NC(=O)c3cc(NC(=O)[C@@H](N)CCCCN)ccc3OC)ccc2OC)cc1C(=O)N[C@@H](CCCCN)C(=O)Nc1ccc(OCC(=O)O)c(C(N)=O)c1 [Compound 269]
2760 nM	7060 nM	14800 nM	4650 nM	COc1cc(OC)c(C(=O)N[C@H]2CC[C@@H](NC(=O)c3cc(C(N)=O)c(OCCCCCN)cc3OCCCCCN)CC2)cc1C(=O)N[C@H]1CC[C@@H](N=C(N(C)C)N(C)C)CC1 [Compound 413]
261 nM	1410 nM	3050 nM	407 nM	COc1ccc(NC(=O)[C@H](CCCCN)NC(=O)c2cc(NC(=O)[C@H](CCCCN)NC(=O)c3cc(NC(=O)[C@H](CCCCN)NC(=O)c4cc(NC(=O)[C@@H](N)CCC(=O)O)ccc4OC)ccc3OC)ccc2OC)cc1C(N)=O [Compound 318]
> 5000 nM	> 10000 nM	> 10000 nM	> 5000 nM	COc1cc(OC)c(C(=O)NC2CCN(C(=O)c3cc(C(=O)N4CCC(NC(=O)c5cc(C(=O)NCCN)c(OC)cc5OC)CC4)c(OC)cc3OC)CC2)cc1C(=O)NCCN [Compound 393]
213 nM	1260 nM	5570 nM	344 nM	COc1ccc(NC(=O)[C@H](CCCCN)NC(=O)c2cc(NC(=O)[C@H](CCCCN)NC(=O)c3cc(NC(=O)[C@H](CCCCN)NC(=O)c4cc(NC(=O)[C@@H](N)CCCCN)ccc4OC)ccc3OC)ccc2OC)cc1C(=O)N[C@@H](C)C(=O)O [Compound 262]
1350 nM	2570 nM	> 10000 nM	3140 nM	COc1ccc(NC(=O)[C@H](CCCCN)NC(=O)c2cc(NC(=O)[C@H](CCCCN)NC(=O)c3cc(NC(=O)[C@H](CCCCN)NC(=O)c4cnc(N)s4)ccc3OC)ccc2OC)cc1C(N)=O [Compound 247]
97 nM	1640 nM	448 nM	93 nM	COc1ccc(NC(=O)[C@@H](CCCNC(=N)N)NC(=O)c2cc(NC(=O)[C@@H](CCCNC(N)=O)NC(=O)c3cc(NC(=O)[C@@H](CCCNC(=N)N)NC(=O)c4cc(NC(=O)[C@H](N)CCCNC(=N)N)ccc4OC)ccc3OC)ccc2OC)cc1C(N)=O [Compound 254]
> 5000 nM	1390 nM	> 10000 nM	> 5000 nM	COc1ccc(NC(=O)[C@H](CCCCN)NC(=O)c2cc(NC(=O)[C@H](CCCCN)NC(=O)c3cc(NC(=O)[C@H](CCCCN)NC(=O)c4cccc(N(C)C(=O)[C@@H](N)CCCCN)c4)ccc3OC)ccc2OC)cc1C(N)=O [Compound 242]
240 nM	3090 nM	7690 nM	541 nM	COc1ccc(NC(=O)[C@H](CCCCN)NC(=O)c2cc(NC(=O)[C@H](CCCCN)NC(=O)c3cc(NC(=O)[C@H](CCCCN)NC(=O)c4cc(NC(=O)[C@@H](N)CCCCN)ccc4OCC(=O)O)ccc3OC)ccc2OC)cc1C(N)=O [Compound 272]
223 nM	2040 nM	1750 nM	329 nM	COc1ccc(NC(=O)[C@H](CCCCN)NC(=O)c2cc(NC(=O)[C@H](CCC(=O)O)NC(=O)c3cc(NC(=O)[C@H](CCCCN)NC(=O)c4cc(NC(=O)[C@@H](N)CCCCN)ccc4OC)ccc3OC)ccc2OC)cc1C(N)=O [Compound 316]

Continued, molecule first:

SMILES	EC50 (tinzaparin)	EC50 (Unfractionated heparin)	EC50 (fondaparinux)	EC50 (enoxaparin)
COc1ccc(NC(=O)[C@@H](CCCNC(=N)N)NC(=O)c2cc(NC(=O)[C@@H](CCCNC(=N)N)NC(=O)c3cc(NC(=O)[C@@H](CCCNC(=N)N)NC(=O)c4cc(NC(=O)[C@H](N)CCCNC(=N)N)ccc4OC)ccc3OCC(=O)O)ccc2OC)cc1C(N)=O [Compound 282]	114 nM	2000 nM	424 nM	121 nM
COc1ccc(NC(C)=O)cc1C(=O)N[C@@H](CCCNC(=N)N)C(=O)Nc1ccc(OC)c(C(=O)N[C@@H](CCCNC(=N)N)C(=O)Nc2ccc(OC)c(C(=O)N[C@@H](CCCNC(=N)N)C(=O)Nc3ccc(OC)c(C(=O)N[C@H](Cc4ccc(O)cc4)C(=O)O)c3)c2)c1 [Compound 302]	278 nM	10600 nM	491 nM	298 nM
COc1ccc(NC(=O)[C@H](CCCNC(=N)N)NC(=O)c2cc(NC(=O)[C@H](CCCNC(=N)N)NC(=O)c3cc(NC(=O)[C@H](CCCNC(=N)N)NC(=O)c4cc(NC(C)=O)ccc4OC)ccc3OC)ccc2OC)cc1C(=O)NCCC(=O)O [Compound 300]	311 nM	3430 nM	462 nM	272 nM
COc1ccc(NC(=O)[C@H](CCCCN)NC(=O)c2cc(NC(=O)[C@@H](N)CCCCN)ccc2OC)cc1C(=O)N[C@@H](CCCCN)C(=O)Nc1ccc(SC)c(C(=O)N[C@@H](CCCCN)C(=O)Nc2ccc(SC)c(C(N)=O)c2)c1 [Compound 268]	> 5000 nM	> 10000 nM	> 10000 nM	> 5000 nM
COc1cc(OC)c(C(=O)N[C@H]2CC[C@H](NC(=O)c3cc(C(=O)O)ncn3)CC2)cc1C(=O)NCCN [Compound 403]	> 5000 nM	> 10000 nM	> 10000 nM	> 5000 nM
COc1cc(OC)c(C(=O)N[C@H]2CC[C@H](NC(=O)c3cc(C(=O)NCCCN)c(OC)cc3OC)CC2)cc1C(=O)O [Compound 407]	> 5000 nM	> 10000 nM	> 10000 nM	> 5000 nM
COc1ccc(NC(=O)[C@H](CCCCN)NC(=O)c2cc(NC(=O)[C@H](CCCCN)NC(=O)c3cc(NC(=O)[C@H](CCCCN)NC(=O)c4cc(NC(=O)[C@H](C)N)ccc4OC)ccc3OC)ccc2OC)cc1C(N)=O [Compound 233]	268 nM	1590 nM	3460 nM	376 nM
COc1ccc(NC(=O)[C@H](N)CCCNC(=N)N)cc1C(=O)N[C@H](CCCNC(=N)N)C(=O)Nc1ccc(OC)c(C(=O)N[C@H](CCCNC(=N)N)C(=O)Nc2ccc(OC)c(C(=O)N[C@H](CCCNC(=N)N)C(=O)Nc3ccc(OCC(=O)O)c(C(N)=O)c3)c2)c1 [Compound 280]	120 nM	1630 nM	581 nM	133 nM
COc1ccc(NC(=O)[C@H](CCCNC(=N)N)NC(=O)c2cc(NC(=O)[C@H](CCCNC(=N)N)NC(=O)c3cc(NC(=O)[C@H](CCCNC(=N)N)NC(=O)c4cc(NC(=O)[C@@H](N)CCCNC(=N)N)ccc4OCC(=O)O)ccc3OC)ccc2OC)cc1C(N)=O [Compound 289]	108 nM	1760 nM	508 nM	133 nM
COc1ccc(NC(=O)[C@@H](CCCNC(=N)N)NC(=O)c2cc(NC(=O)[C@@H](CCCNC(=N)N)NC(=O)c3cc(NC(=O)[C@@H](CCCNC(=N)N)NC(=O)c4cc(NC(C)=O)ccc4OC)ccc3OC)ccc2OC)cc1C(=O)NCCC(=O)O [Compound 295]	325 nM	3990 nM	387 nM	312 nM
